{"source": "PubChem BioAssay AID588620", "about": "(NMMLSC, 2011)", "note": "Calls of active or inactive are those of the source.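 Rule for the calls: active = fitted half-maximal concentration below 30 µM for cell fluorescence in pump-free yeast, so likely self-fluorescent; inactive = the rest.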", "data": [{"tested_on": "not listed separately", "experiment": "concentration-dependent intrinsic compound fluorescence, S. cerevisiae AD/pABC3, flow cytometry, Cherry Pick1 hits, artefact control for antifungal efflux pump inhibitor project, dose response (AID 588620);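 note: red emission of unstained cells excited at 488 nm measured in PE-Texas Red channel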;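 for fluorescence response, % of control: cell median fluorescence as percent of DMSO wells so 100% equals vehicle baseline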", "details": "S. cerevisiae AD/pABC3 compound autofluorescence, flow cytometry; at 33.1 µM (top of the series)", "values": [{"smiles": "Nc1ncc2c(n1)-c1cc(Cl)ccc1SC2", "fluorescence response, % of control": "102% (inactive)"}, {"smiles": "O=C(NNc1cc(N2CCCC2)nc(N2CCCC2)n1)c1ccc([N+](=O)[O-])cc1", "fluorescence response, % of control": "95.7% (inactive)"}, {"smiles": "Cc1ccc(CCNC(=O)CCCn2nc(C)c3c(C)n(-c4ccc(C)cc4)nc3c2=O)cc1", "fluorescence response, % of control": "101% (inactive)"}, {"smiles": "O=[N+]([O-])c1cnc2ccc3ccccc3c2c1", "fluorescence response, % of control": "122% (inactive)"}, {"smiles": "CC(C)(C)c1ccc(-n2ncc3c2CCCC3NC(=O)c2cnccn2)cc1", "note": "(stereo not given)", "fluorescence response, % of control": "90.8% (inactive)"}, {"smiles": "O=C(c1cc(COc2cccc(C(F)(F)F)c2)on1)N1CCC(c2ccncc2)CC1", "fluorescence response, % of control": "109% (inactive)"}, {"smiles": "Cc1cc(C(=O)NC2CC(C)(C)Cc3c2cnn3-c2cccc(F)c2)n(C)n1", "note": "(stereo not given)", "fluorescence response, % of control": "82.7% (inactive)"}, {"smiles": "COc1ccc(CNC(=O)C(C)n2nc(C)c3c(C)n(-c4ccc(C)cc4)nc3c2=O)cc1", "note": "(stereo not given)", "fluorescence response, % of control": "77.9% (inactive)"}, {"smiles": "CC1Cc2cc(S(=O)(=O)NCc3ccccc3)ccc2N1C(=O)C1CCC1", "note": "(stereo not given)", "fluorescence response, % of control": "89% (inactive)"}, {"smiles": "O=C1/C(=C/c2ccc(O)c(O)c2)Oc2cc(O)ccc21", "fluorescence response, % of control": "426% (inactive)"}, {"smiles": "CCOc1ccc(S(=O)(=O)N(C(=O)c2ccco2)c2cc3sc(=O)oc3c3ccccc23)cc1", "fluorescence response, % of control": "92.2% (inactive)"}, {"smiles": "COc1ccc(CNC(=O)C(=O)NCC2OCCN2S(=O)(=O)c2ccc(OC)c(OC)c2)cc1", "note": "(stereo not given)", "fluorescence response, % of control": "99.3% (inactive)"}, {"smiles": "CCCCn1c(N)c(N(CC(C)C)C(=O)CN2C(=O)NC3(CC(C)CC(C)(C)C3)C2=O)c(=O)[nH]c1=O", "note": "(stereo not given)", "fluorescence response, % of control": "95.1% (inactive)"}, {"smiles": "Cc1ccc(C)c(C(=O)COC(=O)c2ccc(C)c(S(=O)(=O)N3CCOCC3)c2)c1", "fluorescence response, % of control": "93.5% (inactive)"}, {"smiles": "OCCN1CCN(CC/C=C2/c3ccccc3Sc3ccc(C(F)(F)F)cc32)CC1", "fluorescence response, % of control": "332% (inactive)"}, {"smiles": "Cc1ccc(CNC(=O)CCCn2nc(C)c3c(C)n(-c4ccccc4)nc3c2=O)cc1", "fluorescence response, % of control": "93.6% (inactive)"}, {"smiles": "NC1=NC[C@@H](Cc2ccc(O)cc2)N1CCCCC1CCCCC1", "fluorescence response, % of control": "93.4% (inactive)"}, {"smiles": "COCCCn1c(=S)[nH]c2ccc(N3CCOCC3)cc2c1=O", "fluorescence response, % of control": "105% (inactive)"}, {"smiles": "O=C(COC(=O)c1c2ccccc2cc2ccccc12)Nc1ncc(C(F)(F)F)cc1Cl", "fluorescence response, % of control": "96.4% (inactive)"}, {"smiles": "C#CC[N+](C)(C)CCCCCCCCCCCC", "fluorescence response, % of control": "117% (inactive)"}, {"smiles": "CCc1ccc(C2=NN(S(C)(=O)=O)C(c3cccs3)C2)cc1", "note": "(stereo not given)", "fluorescence response, % of control": "113% (inactive)"}, {"smiles": "CC1(C)Cc2c(sc(NC(=O)COc3ccc(Cl)cc3Cl)c2C(N)=O)C(C)(C)N1", "fluorescence response, % of control": "86% (inactive)"}, {"smiles": "COc1ccc(OC)c(-c2nc(C(N)=O)c3[nH]c(=O)n(-c4ccc(F)cc4)c3n2)c1", "fluorescence response, % of control": "104% (inactive)"}, {"smiles": "CCOC(=O)c1cnc(SC)nc1Oc1cccc(NC(=O)c2ccc(Cl)cc2)c1", "fluorescence response, % of control": "90.9% (inactive)"}, {"smiles": "Cc1ccc(CNC(=O)C(=O)NCC2OCCN2S(=O)(=O)c2ccc(Br)cc2)cc1", "note": "(stereo not given)", "fluorescence response, % of control": "88.1% (inactive)"}, {"smiles": "Cc1ccc(-n2c(=O)[nH]c3c(C(N)=O)nc(-c4ccc(C)o4)nc32)cc1", "fluorescence response, % of control": "99.1% (inactive)"}, {"smiles": "O=C(c1ccoc1)N1CCC2(CC1)Oc1ccc(F)cc1C(=O)C21CC(c2ccc(Cl)cc2)=NO1", "note": "(stereo not given)", "fluorescence response, % of control": "116% (inactive)"}, {"smiles": "CCCOc1ccc(-c2nc(N3CCN(C)CC3)c3ccccc3n2)cc1", "fluorescence response, % of control": "95.7% (inactive)"}, {"smiles": "CCCCSC1=N/C(=C/c2ccsc2)C(=O)N1c1ccccc1", "fluorescence response, % of control": "95.7% (inactive)"}, {"smiles": "O=C(O)CCN1C(=O)/C(=C/c2ccc(-c3nc4ccccc4s3)o2)SC1=S", "fluorescence response, % of control": "234% (inactive)"}, {"smiles": "O=C(C1CCC1)N1CCc2cc(S(=O)(=O)Nc3ccc4c(c3)OCCO4)ccc21", "fluorescence response, % of control": "116% (inactive)"}, {"smiles": "O=C(COC(=O)c1c(Cl)cccc1Cl)NCC1CCCO1", "note": "(stereo not given)", "fluorescence response, % of control": "106% (inactive)"}, {"smiles": "Cn1cc(C(c2ccccn2)c2cn(C)c3ccccc23)c2ccccc21", "fluorescence response, % of control": "97.1% (inactive)"}, {"smiles": "Cc1ccc2c(c1)[C@H]1[C@H](CO2)[C@H](c2ccccc2)[C@]2(C)C(=O)Nc3cc(F)c(F)cc3C(=O)N12", "fluorescence response, % of control": "90.5% (inactive)"}, {"smiles": "CC(C)C(=O)N1CCC2(CC1)Oc1ccc(Cl)cc1C(=O)C21CC(c2ccc(Cl)cc2)=NO1", "note": "(stereo not given)", "fluorescence response, % of control": "111% (inactive)"}, {"smiles": "CCC(=O)NC(c1ccco1)c1cc(Cl)c2cccnc2c1O", "note": "(stereo not given)", "fluorescence response, % of control": "99.8% (inactive)"}, {"smiles": "CCCCc1nnc(NC(=O)COc2ccc3c(C)cc(=O)oc3c2)s1", "fluorescence response, % of control": "134% (inactive)"}, {"smiles": "O=C(c1ccc2c(c1)OCO2)N1CCC2(CC1)Oc1ccc(Cl)cc1C(=O)C21CC(c2ccccc2)=NO1", "note": "(stereo not given)", "fluorescence response, % of control": "90.9% (inactive)"}, {"smiles": "COc1ccc(-c2nc3ccccc3c(=O)n2CCOc2ccccc2C)cc1", "fluorescence response, % of control": "103% (inactive)"}, {"smiles": "O=c1[nH]c(C2CCN(S(=O)(=O)c3ccc4c(c3)OCCO4)CC2)nc2c1nnn2Cc1ccccc1F", "fluorescence response, % of control": "82.5% (inactive)"}, {"smiles": "COc1ccc(S(=O)(=O)N2CCCCC2)cc1NC(=O)c1ccc(CS(C)(=O)=O)cc1", "fluorescence response, % of control": "99.1% (inactive)"}, {"smiles": "COC(=O)c1ccc(CN2CCC(Oc3cccc(C(=O)N4CCCC4)c3)CC2)cc1", "fluorescence response, % of control": "95.7% (inactive)"}, {"smiles": "CCC(Sc1nc2cc(OC)c(OC)cc2c(=O)n1CCc1ccc(OC)c(OC)c1)C(=O)NCCOC", "note": "(stereo not given)", "fluorescence response, % of control": "83.6% (inactive)"}, {"smiles": "O=C(Cc1cccs1)N1CCN=C1SCc1ccccc1Cl", "fluorescence response, % of control": "121% (inactive)"}, {"smiles": "O=C(COC(=O)c1ccc(S(=O)(=O)N2CCCCC2)cc1)NCc1ccco1", "fluorescence response, % of control": "91.7% (inactive)"}, {"smiles": "O=C1Nc2ccccc2/C1=C/c1cnc(-c2ccccc2)[nH]1", "fluorescence response, % of control": "128% (inactive)"}, {"smiles": "CCOc1ccccc1-c1nc(C(N)=O)c2[nH]c(=O)n(-c3ccc(F)cc3)c2n1", "fluorescence response, % of control": "136% (inactive)"}, {"smiles": "O=c1[nH]c(=S)[nH]c(O)c1/C=C1/C=c2ccccc2=N1", "fluorescence response, % of control": "114% (inactive)"}, {"smiles": "CCCCCCCCCC[N+](C)(C)CC/C=C1/c2ccccc2Sc2ccc(Cl)cc21", "fluorescence response, % of control": "105% (inactive)"}, {"smiles": "CC(C)(C)C1CCC(OC(=O)C[N+]2(C)CCCC2)CC1", "note": "(stereo not given)", "fluorescence response, % of control": "109% (inactive)"}, {"smiles": "O=c1[nH]c(C2CCN(S(=O)(=O)c3ccccc3C(F)(F)F)CC2)nc2c1nnn2Cc1ccccc1", "fluorescence response, % of control": "92.4% (inactive)"}, {"smiles": "CCOc1ccc(OCC)c(NS(=O)(=O)c2ccc3c(c2)CCN3C(=O)C2CCC2)c1", "fluorescence response, % of control": "80.8% (inactive)"}, {"smiles": "O=S(=O)(NCCc1cn2ccccc2n1)c1ccc(F)c(C(F)(F)F)c1", "fluorescence response, % of control": "118% (inactive)"}]}, {"tested_on": "S. cerevisiae AD/pABC3 compound autofluorescence, flow cytometry", "experiment": "concentration-dependent intrinsic compound fluorescence, S. cerevisiae AD/pABC3, flow cytometry, Cherry Pick1 hits, artefact control for antifungal efflux pump inhibitor project, dose response (AID 588620)", "details": "not given", "units": {"EC50": "µM"}, "values": [{"smiles": "O=[N+]([O-])c1ccc(N2N=C(c3ccco3)CC2c2ccccc2)cc1", "note": "(stereo not given)", "EC50": 18.3}, {"smiles": "COc1ccccc1-c1nc(C(N)=O)c2[nH]c(=O)n(-c3cccc(C)c3)c2n1", "EC50": 10.9}, {"smiles": "C[C@@]12C(=O)Nc3cc(F)c(F)cc3C(=O)N1[C@H]1c3cc(Cl)ccc3OC[C@@H]1[C@@H]2c1ccccc1", "EC50": 12.3}, {"smiles": "COc1ccc(OC)c2c1C(=O)C(Cl)=C(Cl)C2=O", "EC50": 0.495}, {"smiles": "C=CCn1c(=O)[nH]c2nc3cc(N=CN(C)C)c(C)cc3nc2c1=O", "EC50": 5.13}, {"smiles": "O=C1/C(=C/c2ccco2)Oc2c1ccc(O)c2CN1CCCCC1", "EC50": 6.07}, {"smiles": "Cc1nc2ccccc2n1CCc1nc2c3ccccc3nc(SCC(=O)NCc3ccco3)n2n1", "EC50": 12.2}, {"smiles": "Cc1ccc(/C=C2\\CCC3=C2OC(N)=C(C#N)C3c2ccc(C)cc2)cc1", "note": "(stereo not given)", "EC50": 9.04}, {"smiles": "Cc1ccc2nc(/C(C#N)=C/c3ccc(O)c(O)c3)[nH]c2c1", "EC50": 5.32}, {"smiles": "COc1cc2sc(-c3ccccc3OC)c(-c3ccc(OCCN4CCOCC4)cc3)c2cc1OC", "EC50": 17.2}, {"smiles": "Cc1nn(Cc2cccc(C(=O)NC34CC5CC(CC(C5)C3)C4)c2)c(C)c1Br", "EC50": 4.45}, {"smiles": "CCOc1ccc(NC(=O)CSc2nnc(Cc3cccn3C)n2-c2ccc(F)cc2)cc1", "EC50": 13.6}]}]}
